In ChEMBL document CHEMBL5113527, “First-in-Class Hydrazide-Based HDAC6 Selective Inhibitor with Potent Oral Anti-Inflammatory Activity by Attenuating NLRP3 Inflammasome Activation” (J Med Chem, 2022):
Calls of active or inactive are those of the source. No cut-off for these calls is given here.

Columns and labels:
[1] = target: Histone deacetylase 1 (Homo sapiens, UniProt Q13547); assay: Inhibition of recombinant HDAC1 (unknown origin) using Boc-Lys(acetyl)-AMC as substrate preincubated for 1 hr followed by substrate addition and measured after 2 hrs by fluorescence based microplate reader analysis
[2] = target: T1, Histone deacetylase 3 (Homo sapiens, UniProt O15379); assay: Inhibition of recombinant HDAC3 (unknown origin) using Boc-Lys(acetyl)-AMC as substrate preincubated for 1 hr followed by substrate addition and measured after 2 hrs by fluorescence based microplate reader analysis
[3] = target: T2, Protein deacetylase HDAC6 (Homo sapiens, UniProt Q9UBN7); assay: Binding affinity to recombinant HDAC6 (unknown origin) assessed as inhibition constant using Boc-Lys(acetyl)-AMC as substrate preincubated for 1 hr followed by substrate addition and measured after 2 hrs by fluorescence based microplate reader analysis
T2 sequence (Q9UBN7 whole entry): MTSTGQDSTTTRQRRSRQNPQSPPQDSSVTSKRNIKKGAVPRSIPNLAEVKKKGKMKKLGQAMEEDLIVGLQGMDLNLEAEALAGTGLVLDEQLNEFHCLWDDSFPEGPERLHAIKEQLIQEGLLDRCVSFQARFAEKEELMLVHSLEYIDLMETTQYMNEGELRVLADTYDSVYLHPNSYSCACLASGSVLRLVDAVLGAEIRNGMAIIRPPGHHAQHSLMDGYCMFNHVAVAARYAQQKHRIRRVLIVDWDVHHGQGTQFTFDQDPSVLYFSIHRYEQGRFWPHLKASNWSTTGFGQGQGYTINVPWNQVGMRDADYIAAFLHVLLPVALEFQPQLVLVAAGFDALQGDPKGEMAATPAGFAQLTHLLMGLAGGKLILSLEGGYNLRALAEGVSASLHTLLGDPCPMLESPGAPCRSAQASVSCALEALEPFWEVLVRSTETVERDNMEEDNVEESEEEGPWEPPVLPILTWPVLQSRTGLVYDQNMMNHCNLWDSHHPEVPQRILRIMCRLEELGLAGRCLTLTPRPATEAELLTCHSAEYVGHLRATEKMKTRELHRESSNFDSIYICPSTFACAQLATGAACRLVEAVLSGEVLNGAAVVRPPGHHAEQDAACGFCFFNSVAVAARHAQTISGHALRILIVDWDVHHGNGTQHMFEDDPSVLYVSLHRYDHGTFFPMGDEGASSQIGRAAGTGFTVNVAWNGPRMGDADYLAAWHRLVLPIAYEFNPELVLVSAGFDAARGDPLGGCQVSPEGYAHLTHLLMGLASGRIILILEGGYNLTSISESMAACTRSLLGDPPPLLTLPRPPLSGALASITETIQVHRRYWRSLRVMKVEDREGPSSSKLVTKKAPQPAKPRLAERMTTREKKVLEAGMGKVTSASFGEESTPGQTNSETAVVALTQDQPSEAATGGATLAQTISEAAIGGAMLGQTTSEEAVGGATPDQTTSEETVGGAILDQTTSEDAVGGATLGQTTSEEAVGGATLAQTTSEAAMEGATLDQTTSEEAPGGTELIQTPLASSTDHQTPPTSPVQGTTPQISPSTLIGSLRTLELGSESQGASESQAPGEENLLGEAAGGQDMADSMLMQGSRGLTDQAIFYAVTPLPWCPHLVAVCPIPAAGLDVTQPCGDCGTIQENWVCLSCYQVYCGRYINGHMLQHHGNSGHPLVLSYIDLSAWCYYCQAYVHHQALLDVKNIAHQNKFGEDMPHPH

[4] = Brain concentration in CD-1 mouse at 20 mg/kg measured after 1 hrs by LC-MS/MS analysis; assay type: ADME, organism-based; conditions: read-out: Ct
[5] = tested on: J774.A1; assay: Inhibition of NLRP3 inflammasome activation in mouse J774.A1 cells assessed as cleavage of pro-caspase 1 to p20 measured at 5 to 20 microM after […] by Western blot analysis; assay type: functional, cell-based; conditions: dose 5-20 µM, DDE = dose-dependent effect
[6] = tested on: L02; assay: Cytotoxicity against human HL7702 cells assessed as reduction in cell viability at 100 uM measured after 48 hrs by spectrophotometric analysis; assay type: toxicity, cell-based; conditions: l02, 48 h
[7] = AUC(0 to infinity) in CD-1 mouse at 5 mg/kg, iv measured after 0.083 to 24 hrs by LC-MS/MS analysis; assay type: ADME, organism-based; design: dose 5 mg/kg, time upper 24 hrs, time lower 0.083 hrs, route iv; conditions: in vivo
[8] = Plasma concentration in CD-1 mouse at 20 mg/kg measured after 0.5 hrs by LC-MS/MS analysis; assay type: ADME, organism-based
[9] = Cmax in CD-1 mouse at 5 mg/kg, iv measured after 0.083 to 24 hrs by LC-MS/MS analysis; assay type: ADME, organism-based; design: dose 5 mg/kg, time 0.083-24 hrs, route iv; conditions: in vivo
[10] = target: T2, Protein deacetylase HDAC6; assay: Inhibition of recombinant HDAC6 (unknown origin) using Boc-Lys(acetyl)-AMC as substrate preincubated for 120 mins followed by substrate addition and measured after 2 hrs by fluorescence based microplate reader analysis
[11] = Cmax in CD-1 mouse at 20 mg/kg, po measured after 0.083 to 24 hrs by LC-MS/MS analysis; assay type: ADME, organism-based; design: time 0.083-24 hrs, dose 20 mg/kg, route po; conditions: in vivo
[12] = tested on: Mus musculus; assay: Inhibition of LPS-induced endotoxic shock in C57BL/6 mouse model serum assessed as decrease in IL-1beta level at 10 mg/kg, ip pretreated for 1 hr followed by LPS addition measured after 12 hrs; assay type: functional, organism-based; conditions: time 13.0 hrs
[13] = target: T1, Histone deacetylase 3; assay: Binding affinity to recombinant HDAC3 (unknown origin) assessed as inhibition constant using Boc-Lys(acetyl)-AMC as substrate preincubated for 1 hr followed by substrate addition and measured after 2 hrs by fluorescence based microplate reader analysis
[14] = target: Histone deacetylase 9 (Homo sapiens, UniProt Q9UKV0); assay: Inhibition of recombinant HDAC9 (unknown origin) using Boc-Lys (trifluoroacetyl) AMC as substrate preincubated for 1 hr followed by substrate addition and measured after 2 hrs by fluorescence based microplate reader analysis
[15] = tested on: HEK293; assay: Cytotoxicity against human HEK293 cells assessed as reduction in cell viability at 100 uM measured after 48 hrs by spectrophotometric analysis; assay type: toxicity, cell-based; conditions: hek293, 48 h
[16] = target: T2, Protein deacetylase HDAC6; assay: Inhibition of recombinant HDAC6 (unknown origin) using Boc-Lys(acetyl)-AMC as substrate preincubated for 0 min followed by substrate addition and measured after 2 hrs by fluorescence based microplate reader analysis
[17] = AUC(0 to infinity) in CD-1 mouse at 20 mg/kg, po measured after 0.083 to 24 hrs by LC-MS/MS analysis; assay type: ADME, organism-based; design: dose 20 mg/kg, time 0.083-24 hrs, route po; conditions: in vivo
[18] = tested on: Mus musculus; assay: Inhibition of LPS-induced endotoxic shock in C57BL/6 mouse model serum assessed as decrease in IL-1beta level at 20 mg/kg, po measured after 12 hrs; assay type: functional, organism-based
[19] = Inhibition of HDAC11(unknown origin) preincubated for 1 hr followed by substrate addition and measured after 2 hrs by fluorescence based microplate reader analysis; design: species or system Homo sapiens
[20] = target: Histone deacetylase 2 (Homo sapiens, UniProt Q92769); assay: Inhibition of recombinant HDAC2 (unknown origin) using Boc-Lys(acetyl)-AMC as substrate preincubated for 1 hr followed by substrate addition and measured after 2 hrs by fluorescence based microplate reader analysis
[21] = Plasma concentration in CD-1 mouse at 20 mg/kg measured after 1 hrs by LC-MS/MS analysis; assay type: ADME, organism-based

T1 sequence (O15379 whole entry): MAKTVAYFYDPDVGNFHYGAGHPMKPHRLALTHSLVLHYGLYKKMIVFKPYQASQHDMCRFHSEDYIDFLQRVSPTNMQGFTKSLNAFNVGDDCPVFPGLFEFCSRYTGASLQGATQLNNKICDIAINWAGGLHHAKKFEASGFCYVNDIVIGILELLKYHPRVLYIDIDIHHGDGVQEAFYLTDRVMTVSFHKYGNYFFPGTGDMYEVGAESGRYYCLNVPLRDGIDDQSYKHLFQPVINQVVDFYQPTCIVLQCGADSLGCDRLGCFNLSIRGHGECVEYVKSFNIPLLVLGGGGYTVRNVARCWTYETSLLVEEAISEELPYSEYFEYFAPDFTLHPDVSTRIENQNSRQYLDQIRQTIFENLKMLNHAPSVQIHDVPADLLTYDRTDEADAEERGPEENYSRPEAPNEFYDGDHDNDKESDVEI
Histone deacetylase 9, sequence (Q9UKV0 whole entry): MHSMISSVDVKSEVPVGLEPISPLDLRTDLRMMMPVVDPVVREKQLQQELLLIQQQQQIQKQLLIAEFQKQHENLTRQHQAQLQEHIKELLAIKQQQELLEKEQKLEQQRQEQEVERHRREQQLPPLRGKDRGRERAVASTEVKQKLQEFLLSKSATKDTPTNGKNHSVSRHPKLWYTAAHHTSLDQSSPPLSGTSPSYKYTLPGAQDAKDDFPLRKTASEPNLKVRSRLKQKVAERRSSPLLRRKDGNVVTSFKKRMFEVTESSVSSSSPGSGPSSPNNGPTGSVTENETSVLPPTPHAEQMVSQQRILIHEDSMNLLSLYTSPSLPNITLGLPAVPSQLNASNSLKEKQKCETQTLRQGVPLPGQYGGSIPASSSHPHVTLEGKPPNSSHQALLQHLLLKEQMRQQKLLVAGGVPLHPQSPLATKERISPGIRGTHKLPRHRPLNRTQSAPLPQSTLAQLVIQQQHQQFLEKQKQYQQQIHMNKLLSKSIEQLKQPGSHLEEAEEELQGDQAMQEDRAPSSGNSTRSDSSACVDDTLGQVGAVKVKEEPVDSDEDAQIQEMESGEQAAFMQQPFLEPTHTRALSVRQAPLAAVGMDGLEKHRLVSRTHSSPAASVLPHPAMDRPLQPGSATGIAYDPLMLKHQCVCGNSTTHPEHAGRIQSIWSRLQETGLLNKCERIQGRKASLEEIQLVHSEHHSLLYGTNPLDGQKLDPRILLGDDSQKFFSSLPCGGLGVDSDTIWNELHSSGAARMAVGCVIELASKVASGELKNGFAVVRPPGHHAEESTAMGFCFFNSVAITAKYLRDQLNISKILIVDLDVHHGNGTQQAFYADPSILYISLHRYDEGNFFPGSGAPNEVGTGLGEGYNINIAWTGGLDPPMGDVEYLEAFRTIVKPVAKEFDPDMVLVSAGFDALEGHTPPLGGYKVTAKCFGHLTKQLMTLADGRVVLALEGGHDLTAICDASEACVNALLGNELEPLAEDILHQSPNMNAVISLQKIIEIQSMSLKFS
Histone deacetylase 1, sequence (Q13547 whole entry): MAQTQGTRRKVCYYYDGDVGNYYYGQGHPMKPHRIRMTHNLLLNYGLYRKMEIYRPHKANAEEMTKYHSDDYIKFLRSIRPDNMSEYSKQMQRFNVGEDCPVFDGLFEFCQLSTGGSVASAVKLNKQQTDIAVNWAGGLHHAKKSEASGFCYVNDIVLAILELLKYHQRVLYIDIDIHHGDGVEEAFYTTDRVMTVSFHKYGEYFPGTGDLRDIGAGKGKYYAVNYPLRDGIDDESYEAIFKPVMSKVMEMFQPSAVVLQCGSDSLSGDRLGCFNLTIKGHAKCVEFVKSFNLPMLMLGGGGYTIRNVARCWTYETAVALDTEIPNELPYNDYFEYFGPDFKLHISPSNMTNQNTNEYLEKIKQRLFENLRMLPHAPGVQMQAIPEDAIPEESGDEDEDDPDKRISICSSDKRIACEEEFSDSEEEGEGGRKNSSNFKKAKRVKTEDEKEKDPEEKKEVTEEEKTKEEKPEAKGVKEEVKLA
Histone deacetylase 2, sequence (Q92769 whole entry): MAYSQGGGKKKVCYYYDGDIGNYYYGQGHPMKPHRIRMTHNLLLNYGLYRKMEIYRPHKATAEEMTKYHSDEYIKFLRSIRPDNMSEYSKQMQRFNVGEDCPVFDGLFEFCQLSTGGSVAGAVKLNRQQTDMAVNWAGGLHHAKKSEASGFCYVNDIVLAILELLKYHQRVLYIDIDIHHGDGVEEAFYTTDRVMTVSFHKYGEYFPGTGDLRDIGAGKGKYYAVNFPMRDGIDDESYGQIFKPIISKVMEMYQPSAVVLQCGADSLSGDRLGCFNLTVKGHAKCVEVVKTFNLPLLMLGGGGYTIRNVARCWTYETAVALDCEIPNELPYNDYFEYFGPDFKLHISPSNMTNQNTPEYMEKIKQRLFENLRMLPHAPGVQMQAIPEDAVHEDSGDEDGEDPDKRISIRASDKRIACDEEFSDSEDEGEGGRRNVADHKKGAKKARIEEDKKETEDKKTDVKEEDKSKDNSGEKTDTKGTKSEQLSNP

CCNNC(=O)c1ccc(CN2c3ccccc3C=Cc3ccncc32)cc1
IC50 [1]: 1530 nM
IC50 [2]: 1030 nM
Ki [3]: 3 nM
concentration at 1 h [4]: 7400 ng/mL
Activity [5]: Dde
Activity [6]: Non-Toxic
AUC(0-inf) [7]: 2760 ng·h/mL
concentration at 0.5 h [8]: 7740 ng/mL
Cmax [9]: 4600 ng/mL
IC50 [10]: 51 nM
Cmax [11]: 5570 ng/mL
Activity [12]: Active
Ki [13]: 430 nM
IC50 [14]: > 5000 nM
Activity [15]: Non-Toxic
IC50 [16]: 461 nM
AUC(0-inf) [17]: 10300 ng·h/mL
Activity [18]: Active
IC50 [19]: > 5000 nM
IC50 [20]: 2060 nM
concentration at 1 h [21]: 5880 ng/mL
